Data set [1] can be described thus: Partition coefficient (logP). The class given is physicochemical. The settings on record: octanol/water.
A short description of data set [2]: Concentration required for plasma clearance is determined in dogs. The class given is ADME, organism-based, Canis lupus familiaris. The settings on record: dog.
For data set [3], the target named is T1, Integrin alpha-V/beta-3 (Homo sapiens, UniProt P05106+P06756). The data set is described as follows: Inhibition of binding to alpha v beta 3 receptor. The class given is protein-complex assay.
T1 sequence (P05106 27-788 limits assumed): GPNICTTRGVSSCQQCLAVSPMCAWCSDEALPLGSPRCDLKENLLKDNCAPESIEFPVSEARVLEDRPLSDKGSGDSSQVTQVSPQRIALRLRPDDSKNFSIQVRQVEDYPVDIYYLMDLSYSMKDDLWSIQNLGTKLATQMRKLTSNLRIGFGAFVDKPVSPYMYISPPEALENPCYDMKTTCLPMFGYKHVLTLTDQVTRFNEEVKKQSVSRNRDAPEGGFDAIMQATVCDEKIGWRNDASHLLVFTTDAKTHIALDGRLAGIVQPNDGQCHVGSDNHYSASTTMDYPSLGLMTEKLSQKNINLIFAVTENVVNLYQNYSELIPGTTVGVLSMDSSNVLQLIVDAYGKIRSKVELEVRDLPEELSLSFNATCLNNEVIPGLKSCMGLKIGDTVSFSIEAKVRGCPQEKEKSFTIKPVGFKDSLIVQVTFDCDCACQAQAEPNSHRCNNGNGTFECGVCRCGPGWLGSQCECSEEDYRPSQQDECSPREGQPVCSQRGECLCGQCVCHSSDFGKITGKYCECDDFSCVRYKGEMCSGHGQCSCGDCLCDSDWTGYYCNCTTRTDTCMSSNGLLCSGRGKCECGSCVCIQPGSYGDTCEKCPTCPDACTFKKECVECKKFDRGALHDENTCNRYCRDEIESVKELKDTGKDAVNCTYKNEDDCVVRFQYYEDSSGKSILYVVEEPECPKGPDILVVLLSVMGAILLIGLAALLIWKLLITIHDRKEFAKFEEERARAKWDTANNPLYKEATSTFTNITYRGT
T1 sequence (P06756 31-889 limits assumed): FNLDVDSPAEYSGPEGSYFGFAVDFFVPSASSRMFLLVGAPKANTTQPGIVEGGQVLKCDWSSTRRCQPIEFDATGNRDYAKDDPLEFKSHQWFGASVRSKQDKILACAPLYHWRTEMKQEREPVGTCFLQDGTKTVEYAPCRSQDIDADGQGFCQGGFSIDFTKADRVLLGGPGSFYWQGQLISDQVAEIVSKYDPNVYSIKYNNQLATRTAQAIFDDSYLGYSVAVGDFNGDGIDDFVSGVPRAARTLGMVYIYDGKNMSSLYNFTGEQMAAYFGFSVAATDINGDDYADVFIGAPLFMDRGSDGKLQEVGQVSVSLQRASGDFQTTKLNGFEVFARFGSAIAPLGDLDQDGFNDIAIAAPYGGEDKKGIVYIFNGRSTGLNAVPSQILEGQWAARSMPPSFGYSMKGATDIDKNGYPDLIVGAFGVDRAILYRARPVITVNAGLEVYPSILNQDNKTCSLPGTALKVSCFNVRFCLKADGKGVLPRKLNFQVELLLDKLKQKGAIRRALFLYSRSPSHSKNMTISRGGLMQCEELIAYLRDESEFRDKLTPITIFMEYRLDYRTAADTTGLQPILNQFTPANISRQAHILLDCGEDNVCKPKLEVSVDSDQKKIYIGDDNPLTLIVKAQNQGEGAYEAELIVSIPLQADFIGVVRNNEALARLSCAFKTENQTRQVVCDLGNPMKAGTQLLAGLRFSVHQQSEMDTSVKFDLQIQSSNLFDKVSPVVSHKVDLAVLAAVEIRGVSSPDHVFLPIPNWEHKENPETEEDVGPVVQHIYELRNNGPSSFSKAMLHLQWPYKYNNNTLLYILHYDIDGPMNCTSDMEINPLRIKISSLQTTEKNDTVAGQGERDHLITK
T1 sequence (P06756 891-1048 limits assumed): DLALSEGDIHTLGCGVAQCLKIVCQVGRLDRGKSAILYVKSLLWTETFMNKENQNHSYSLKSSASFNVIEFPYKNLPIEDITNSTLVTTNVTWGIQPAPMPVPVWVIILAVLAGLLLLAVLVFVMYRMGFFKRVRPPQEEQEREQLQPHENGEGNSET
Data set [4] can be described thus: Oral bioavailability in dog. The class given is ADME, organism-based, Canis lupus familiaris. The settings on record: in vivo.
A short description of data set [5]: Half life of compound is determined in dogs. The class given is ADME, Canis lupus familiaris. The settings on record: dog, in vivo.
The target of data set [6] is T1, Integrin alpha-V/beta-3. The data set is described as follows: Inhibition of alpha v beta 3 receptor binding. The class given is protein-complex assay.

The source of these data is ChEMBL document CHEMBL1137175, “Nonpeptide alpha V beta 3 antagonists. Part 9: Improved pharmacokinetic profile through the use of an aliphatic, des-amide backbone” (Bioorg Med Chem Lett, 2004).

pIC50: −log10 of the molar value.

In data set [1], `O=C(Cc1ccccc1)N[C@@H](CCCCCCCc1ccc2c(n1)NCCC2)C(=O)O` showed a logP of 1.13. For the same compound, in data set [2], the clearance amounted to 13 mL/min/kg. In addition, the pIC50 at Integrin alpha-V/beta-3 [3] was 7.29. The bioavailability in data set [4] came to 17%. Moreover, in data set [5], the half-life is 19.2 h. As for `O=C(O)[C@H](CCCCCCCc1ccc2c(n1)NCCC2)NS(=O)(=O)Cc1ccccc1`, the pIC50 on Integrin alpha-V/beta-3 [3] is 7.46.

Regarding `O=C(O)[C@H](CCCCCCCc1ccc2c(n1)NCCC2)NS(=O)(=O)c1ccccc1`, at Integrin alpha-V/beta-3 [3], the pIC50 is 7.95. As to `CC1(C)[C@@H]2CC[C@@]1(CS(=O)(=O)N[C@@H](CNC(=O)CCCCc1ccc3c(n1)NCCC3)C(=O)O)C(=O)C2`, the pIC50 at Integrin alpha-V/beta-3 [6] is 10.00. Regarding `CC1(C)[C@@H]2CC[C@@]1(CS(=O)(=O)N[C@@H](CCCCCCCc1ccc3c(n1)NCCC3)C(=O)O)C(=O)C2`, the pIC50 on Integrin alpha-V/beta-3 [3] is 9.10. Same read-out and setting: under `O=C(N[C@@H](CCCCCCCc1ccc2c(n1)NCCC2)C(=O)O)OCc1ccccc1` stands 8.21.

As for `Cc1ccc(S(=O)(=O)N[C@@H](CNC(=O)CCCCc2ccc3c(n2)NCCC3)C(=O)O)cc1`, the pIC50 on Integrin alpha-V/beta-3 [6] was 9.40.

`O=C(O)[C@H](CCCCCCCc1ccc2c(n1)NCCC2)NS(=O)(=O)C1CCCCC1`: the pIC50 on Integrin alpha-V/beta-3 [3] is 7.30. Take `CCCCS(=O)(=O)N[C@@H](CCCCCCCc1ccc2c(n1)NCCC2)C(=O)O`: the pIC50 at Integrin alpha-V/beta-3 [3] was 7.67. On the same count and under the same terms, with `O=C(NCc1ccccc1)N[C@@H](CCCCCCCc1ccc2c(n1)NCCC2)C(=O)O` the figure was 8.33. At Integrin alpha-V/beta-3 [6], `O=C(CCCCc1ccc2c(n1)NCCC2)NC[C@H](NC(=O)c1ccccc1)C(=O)O` had a negative-log IC50 (pIC50) of 7.13.

`O=C(O)[C@H](CCCCCCCc1ccc2c(n1)NCCC2)NS(=O)(=O)CC1CCCCC1` gave a pIC50 on Integrin alpha-V/beta-3 [3] of 7.74. At Integrin alpha-V/beta-3 [6], `O=C(CCCCc1ccc2c(n1)NCCC2)NC[C@H](NS(=O)(=O)c1ccccc1)C(=O)O` gave a pIC50 of 9.52.

Take `O=C(CCCCc1ccc2c(n1)NCCC2)NC[C@H](NC(=O)OCc1ccccc1)C(=O)O`: the negative-log IC50 (pIC50) on Integrin alpha-V/beta-3 [6] is 8.74. The same measure, in the same setting: under `CCCCS(=O)(=O)N[C@@H](CNC(=O)CCCCc1ccc2c(n1)NCCC2)C(=O)O` stands 8.64. The compound `O=C(N[C@@H](CCCCCCCc1ccc2c(n1)NCCC2)C(=O)O)c1ccccc1` had a pIC50 on Integrin alpha-V/beta-3 [3] of 7.14.
